The values that follow come from patent publication US5939578A, “Vasomolol: an ultra short-acting and vasodilatory vanilloid type β - adrenoceptor antagonist” (Lin; Tong-Ho, priority 1996, dated 1999).

In data set [1] the test system is β-adrenoceptor, ventricular membranes. Nature of the data set: [3H]-DHA saturation binding to ventricular membranes (Scatchard analysis). On the set-up: species or system pig. As to the method: (§1) Pig's heart were obtained from a local slaughterhouse immediately after the animals had been killed and transported to our laboratory in ice-cold buffer (250 mM sucrose/50 mM Tris [hydroxymethyl] aminomethane HCl/1 mM magnesium chloride, pH 7.4). Various heart tissues were removed and prepared as detailed as described in Cardiovasc. Res. 25, 764, 1991 (by Bjornerheim, R. et al.). In the test for receptor binding, the ventricles were placed in ice-cold buffer and all subsequent procedures were carried out at 4° C. The tissue was homogenised in 20 volumes of TE buffer (10 mmole.litre^-1 Tris-HCl, 1 mmole.litre^-1 EDTA, 0.1 mmole.litre^-1 ascorbic acid, pH 7.4) with three 12-s pulses using a Polytron homogenizer (Kinematica, Model PT 3000, Switzerland). The homogenate was filtered with pressure through muslin and the filtrate centrifuged for 10 min at 1000 g to remove connective tissue, unbroken cells and cell debris. The supernatant was centrifuged again at 10,000 g for 12 min. This second supernatant was then centrifuged for 15 min at 30,000 g and the final pellet was suspended in a assay buffer (75 mM Tris HCl/25 mM MgCl2, pH 7.4).
(§2) Protein was determined by the method in Anal. Biochem. 72, 248, 1976 (by Bradford, M. M. et al.). This membrane preparation has been described in Biochem. Biophys. Acta. 541, 334, 1978 (by Ciaraldi, T. et al.). The binding assay of [^3 H]-DHA was carried out as described in Biochem. Biophys. Res. Commun. 60, 703, 1974 ( by Lefkowitz, R. J. et al.) with slight modifications. [^3 ]-DHA and ventricular membranes (200-300 μg) were incubated for 60 min at 25° C. with and without the addition of 1 μM alprenolol, in 75 mM Tris-HCI buffer comprising MgCl2 25 mM, to make a final volume of 250 μl. In competitive binding experiments, the competing agent was added directly to the incubation mixture. The incubation was terminated by addition of 1 ml of ice-cold assay buffer followed by immediate filtration through Whatman GF/C glass fiber filters supported on a 12-port filter manifold (Millipore). The filters were immediately washed three times with 5 ml of ice-cold assay buffer and dried in an oven at 60° C. for 2 hr prior to adding 5 ml of Triton-toluene based scintillation fluid.
[^3 H]-DHA trapped in the filters was counted in a Wallac LKB 1211 rackbeta liquid scintillation counter with an efficiency of 41%. In each experiment, non-specifically bound [^3 H]-DHA was determined by incubating membrane protein and [^3 H]-DHA with 1 μM alprenolol. Specific binding was thus obtained by deducing this value from the total binding of [^3 H]-DHA for each sample.
[^3 H]dihydroalprenolol([^3 H]DHA) binding curve with pig ventricular membranes. […]

Data set [2] in a line: Blood pressure and heart rate responses to intravenous injection in anesthetized rats. It counts as in vivo, pentobarbital-anesthetized normotensive Wistar rats. Here is the method: Measurement of blood pressure and heart rate
The method reported in Gen.
(§3) vasomolol (0.5, 1.0, 3.0 mg/kg)

Data set [3] deals with phenylephrine-induced pressor response. Nature of the data set: Inhibition of phenylephrine-induced pressor response during intravenous infusion. It counts as in vivo, reserpinized rats. The conditions noted are these: infusion 300 μg/kg/min; phenylephrine 10 μg/kg i.v.; data not shown. As to the method:
The method reported in Gen. Pharmacol. 24, 1425, 1993 (by inventor group),
phenylephrine (10 μg/klg, i.v.)

In a further data set the test system is β-adrenergic receptor. Put plainly: β-blockade and duration of action: inhibition of (-)isoproterenol-induced tachycardia during and after infusion. It counts as in vivo, pentobarbital-anesthetized rats. Here is the method: Vasomolol (100 μg/kg/min) was infused consecutively into a femoral vein in pentobarbital-anesthetized rats. Each perfusion was maintained for 60 min. Before and during the infusion of vasomolol and esmolol, at 10-min intervals, bolus i.v. injections of (-) isoproterenol (0.5. μg/kg) were administered to assess the level of β-blockade. (-) lsoproterenol injections were also continued for 60 min. after termination of the highest dose of vasomolol and esmolol to assess the duration of β-blockade reported in J. Pharm. Exp. Ther. 237, 912, 1986 (by Quon, C. Y. et al.). The percentage of inhibition of the (-)isoproterenol-induced tachycardia parameter of β-blockade--was calculated during and after infusions of vasomolol.
isoproterenol (0.5 μg/kg)
as §3

Data set [4] addresses T1, β-adrenoceptor, ventricular membranes (Sus scrofa, UniProt Q28998).
T1 construct: tissue local slaughterhouse; host or cells: pig heart ventricular membranes
Put plainly: Competition for [3H]-DHA binding to ventricular membranes. On the set-up: species or system pig. As to the method:
as §1, with “Res. 25, 764, 1991 (by Bjornerheim, R. et al.).” left out, “debris.” for “debris. The supernatant was centrifuged again at 10,000 g for 12 min. This second supernatant was then centrifuged for 15 min at 30,000 g and the final pellet was suspended in a assay buffer (75 mM Tris HCl/25 mM MgCl2, pH 7.4).”
as §2, with “This” for “Protein was determined by the method in Anal. Biochem. 72, 248, 1976 (by Bradford, M. M. et al.). This”, “541, 334, 1978 (by Ciaraldi, T. et al.).” left out, “60, 703, 1974 ( by Lefkowitz, R. J. et al.) with slight modifications.” left out
In each experiment, non-specifically bound [^3 H]-DHA was determined by incubating membrane protein and [^3 H]-DHA with 1 μM alprenolol. Specific binding was thus obtained by deducing this value from the total binding of [^3 H]-DHA for each sample.
All incubations were performed as described in the method section. Data shown are the means of three independent duplicate determinations.

A further data set relates to blood and liver esterase. The conditions noted are these: background, Drugs 33, 392, 1987; cited from earlier work.
For data set [5], the system named is right atria and left atrial strips. Put plainly: Intrinsic sympathomimetic activity in isolated right atria and left atrial strips. More on the design: species or system reserpinized guinea-pigs. The conditions noted are these: in words. Here is the method:
Animals were pretreated with reserpine (10 mg/kg, i.p.) 24 hr prior to the experiment described in Naunyn-Schmiedeberg's Arch. […] All preparations including isolated right atria and left atria strips were studied.
All measurements are expressed as mean percentages of the control frequency or force in the same preparation.

A short description of data set [6]: Blood pressure and heart rate responses to intravenous injection in anesthetized rats. It counts as in vivo, pentobarbital-anesthetized normotensive Wistar rats. The conditions noted are these: 0.1 mg/kg i.v.; mean ± SEM (n = 8).
[7] abbreviates: 0.5 mg/kg i.v., mean ± SEM (n = 8).
The mark [8] stands for this setting: 1.0 mg/kg i.v., mean ± SEM (n = 8).
[9] abbreviates: 3.0 mg/kg i.v., mean ± SEM (n = 8).

The structures appear in SMILES notation. Bounds are passed on as bounds.

T1 sequence (Q28998 whole entry): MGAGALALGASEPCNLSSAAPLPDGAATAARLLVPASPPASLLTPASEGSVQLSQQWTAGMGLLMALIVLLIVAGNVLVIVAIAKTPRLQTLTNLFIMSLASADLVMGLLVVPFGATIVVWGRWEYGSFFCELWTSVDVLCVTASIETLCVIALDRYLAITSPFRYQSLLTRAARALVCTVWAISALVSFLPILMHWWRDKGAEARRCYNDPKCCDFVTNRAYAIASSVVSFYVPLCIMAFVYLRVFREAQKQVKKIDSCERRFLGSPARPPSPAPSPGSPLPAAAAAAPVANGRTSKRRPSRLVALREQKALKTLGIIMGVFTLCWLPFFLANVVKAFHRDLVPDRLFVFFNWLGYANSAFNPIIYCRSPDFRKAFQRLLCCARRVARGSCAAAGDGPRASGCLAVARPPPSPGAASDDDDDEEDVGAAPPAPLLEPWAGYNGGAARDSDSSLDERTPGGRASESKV

Usually Kd stands for the free concentration of one partner at which half of the binding sites on the other are occupied at equilibrium, for simple one-to-one binding. `CCCc1ccccc1OCC(O)CNC(C)C` (centres unmarked) [[^3 H]-DHA, [^3 H]dihydroalprenolol]: in data set [1] (25° C., mean±S.E.M., Scatchard), the “maximum binding capacity (Bmax)” value was 120.3±6.0 fmol/mg protein. In addition, the Kd in data set [1] (25° C., mean±S.E.M., Scatchard, read-out: equilibrium dissociation constant (Kd)) came out at 8.1 ± 0.9 nM. In addition, in data set [1] (data not shown), the “duration of maintained binding equilibrium” value is given as “up to 90 min” and the “time to reach binding equilibrium” value is on record as “approximately 20 min”.
Usually IC50 stands for the concentration needed to halve the response being measured. Higher therefore signals weaker potency. As for `COC(=O)CCc1ccc(OCC(O)CNC(C)C)cc1` (centres unmarked) [Esmolol], the BP change in data set [2] (setting [7]) was -4.0 ± 0.8 mm Hg; in data set [2] (setting [8]) it was -6.3 ± 1.3 mm Hg; in data set [2] (setting [9]), -8.7 ± 0.9 mm Hg. Also, the HR change in data set [2] (setting [7]) is reported as -25.7 ± 2.4 bpm; in data set [2] (setting [8]), -37.5 ± 3.6 bpm; in data set [2] (setting [9]), -58.2 ± 4.7 bpm. The bradycardia duration in data set [2] (setting [7]) was 3.7 ± 0.6 min; in data set [2] (setting [8]), 6.0 ± 1.3 min; in data set [2] (setting [9]), 7.5 ± 1.1 min; in data set [2] (i.v. injection), “less than 10 min”. Further, the “inhibition of phenylephrine-induced pressor response” value in data set [3] is given as “could not significantly inhibit”. Besides, the “onset of β-blockade to steady-state level” value in the data set with β-adrenergic receptor (after initiating each infusion rate, isoproterenol 0.5 μg/kg) is reported as ≤ 10 min. In addition, the “time required for 50% recovery” value in the data set on β-adrenergic receptor (after termination of infusion, mean±S.E.M.) was 9.5 ± 1.0 min. Further, in the data set with β-adrenergic receptor (in words), the “disappearance of β-blockade after termination of infusion” value is “disappeared rapidly after the termination of infusion”. Besides, in data set [4] (in words), the “order of potency inhibiting [3H]-DHA binding” value is “(-) propranolol>>vasomolol=esmolol”. The IC50 in data set [4] (mean±S.E.M.) was found to be 5000 ± 1300 nM. Moreover, the “metabolism by blood and liver esterase” value with blood and liver esterase is “rapidly metabolized by blood and liver esterase”.
Turning to `CC(C)NCC(O)c1ccc(O)c(O)c1` (centres unmarked) [isoproterenol, reference compound], the “intrinsic sympathomimetic activity: effect on heart rate and contractility” value in data set [5] (cumulative concentrations) was “produced concentration-dependent increases in heart rate and contractility”.
Turning to `CC(C)NCC(O)COc1cccc2ccccc12` (centres unmarked) [Propranolol], the BP change was determined as 3.9 ± 1.0 mm Hg in data set [2] (0.1 mg/kg i.v., mean ± SEM (n = 8)); 7.0 ± 1.6 mm Hg in data set [2] (setting [7]); 9.5 ± 1.1 mm Hg in data set [2] (setting [8]). In addition, the results for the HR change in data set [2] (setting [7]), in data set [2] (setting [8]) and in data set [6] were -50.6 ± 8.1 bpm, -65.0 ± 8.9 bpm and -30.7 ± 3.8 bpm, respectively. In data set [5], the “negative inotropic and chronotropic effects” value was “produced negative inotropic and chronotropic effects”.
